Measured values from US20080177115A1, “Isotopically labeled alpha-keto acids and esters” (Spectra Gases, Inc., priority 2006, published 2008).

Assays:
Type in all cases: physicochemical
[1] = Concentration studies: stability of pyruvic acid solutions in water at higher concentrations
Protocol: Each of these commercial solutions were subjected to light for 6-weeks at temperatures ranging from about 22° C. to about 26° C. At each of the concentrations listed below, it was discovered that the pyruvic acid solutions were stable.

[2] = Shelf storage stability of [1-^13C]pyruvic acid in water, compared by ^1H and ^13C NMR spectra; details: 0.025M in water; for Shelf stability (NMR spectra unchanged): all conditions of Table 1
Protocol: Samples of isotopically labeled [1-^13C]pyruvic acid, having Formula VI and synthesized as discussed immediately below, were subjected to various conditions as depicted in Table 1, in order to establish the compound's shelf storage stability.
The resulting [1-^13C]pyruvic acid was tested as follows in Table 1:
^1H and ^13C NMR spectra of the distilled [1-^13C]pyruvic acid in water (0.025M) were acquired at the onset of the study and prior to exposing the samples to the various conditions specified in Table 1. ^1H and ^13C NMR spectra were again acquired for each of the samples after being exposed to the aforementioned conditions on a weekly basis for 12-weeks. The spectra acquired after exposure were compared visually and appeared to remain unchanged as compared with the spectra acquired prior to exposure, i.e. the spectra were as expected for [1-^13C]pyruvic acid in water. As such, it was concluded that each of the samples were shelf stable. Similarly, ^1H and ^13C NMR spectra acquired after 17-weeks of exposure remained unchanged as compared with the spectra acquired prior to exposure.

[3] = Titration of aqueous sample with sodium hydroxide, composition by HPLC (dimer formation); details: pH of about 6.2 after titration with sodium hydroxide
Excerpt: The molarity of sample 4 was confirmed to be 0.025M by titrating the aqueous sample with sodium hydroxide. […] It was also discovered that at pHs greater than 5.8, such as at a pH of about 6.2, some of the pyruvic acid was present in the form of a dimerized sodium salt. […] As such, it was discovered that to minimize dimmer formation, it may be necessary to control the pH of [1-^13C]pyruvate solutions, and in particular, any aqueous solution should be maintained at a pH of about 6.5 or less, more preferably 6.0 or less, and even more preferably 5.8 or less.

[4] = Sample 3: Room temperature (about 22° C. to about 26° C.), Dark
[5] = Sample 4: Room temperature (about 22° C. to about 26° C.), Light

Structure (SMILES)	Stability of solutions in water ([1]; each of the concentrations of Table 2, light, 6-weeks, about 22° C. to about 26° C.)	Shelf stability, 12 weeks ([2]; Sample 1: −10° C., Dark)	Shelf stability, 17 weeks ([2]; Sample 1: −10° C., Dark)	Shelf stability, 12 weeks ([2]; Sample 2: 4° C., Dark)	Shelf stability, 17 weeks ([2]; Sample 2: 4° C., Dark)	Shelf stability, 12 weeks [2, 4]	Shelf stability, 17 weeks [2, 4]	Shelf stability, 12 weeks [2, 5]	Shelf stability, 17 weeks [2, 5]	Shelf stability (NMR spectra unchanged) ([2]; 17-weeks)	Shelf stability (NMR spectra unchanged) ([2]; weekly for 12-weeks)	Stability of solutions in water at higher concentrations (believed) ([1]; at least the concentrations of Table 2 in water, inferred from commercial pyruvic acid)	Content of dimerized [1-^13C]pyruvate salt by HPLC [3]	Content of sodium [1-^13C]pyruvate by HPLC [3] [%]	Share of the pyruvic acid accounted for by dimerized salt [3]
CC(=O)C(=O)O [Pyruvic acid, 2-oxopropanoic acid, reference compound]	stable														
CC(=O)[13C](=O)O [[1-^13C]pyruvic acid]		Stable	Stable	Stable	Stable	Stable	Stable	Stable	Stable	shelf stable	shelf stable	stable	2-4%	89	4-6%
